Data on 15 compounds can be found in ChEMBL document CHEMBL1681743, “Novel second generation analogs of eribulin. Part III: Blood-brain barrier permeability and in vivo activity in a brain tumor model” (Bioorg Med Chem Lett, 2011).

Data set [1] in a line: Antiproliferative activity against human doxorubicin-resistant MES-SA/Dx5-Rx1 cells. Type of data set: functional.
Data set [2] is described as follows: Brain penetration index, ratio of AUC (0 to infinity) in brain to plasma of BALB/c mouse at 5 mg/kg, iv. The arrangement: dose 5 mg/kg, route intravenous. Type of data set: ADME, organism-based.
Data set [3] deals with SF-295. In words: Antiproliferative activity against human SF295 cells. It counts as functional, cell-based.
Data set [4] concerns Mus musculus. In words: AUC (0 to infinity) in BALB/c mouse at 5 mg/kg, iv. Type of data set: ADME, organism-based, Brain. The conditions noted are these: in vivo. Set-up: time infinity, dose 5 mg/kg, route intravenous.
A short description of data set [5]: Antiproliferative activity against human MES-SA cells. Type of data set: functional, cell-based.
The subject of data set [6] is U-251. In words: Antitumor activity against human U251 cells infected in athymic mouse assessed as increase in mouse survival at 1.1 to 2.5 mg/kg relative to control. Type of data set: functional. The conditions noted are these: dose mg/kg 1.1-2.5.
Data set [7] has as its system U-251. In words: Antiproliferative activity against human U251 cells. It counts as functional, cell-based.
The nature of data set [8]: Fraction unbound in BALB/c mouse brain at 5 mg/kg, iv. It counts as ADME, organism-based. Set-up: dose 5 mg/kg, route intravenous.
A short description of data set [9]: Tmax in BALB/c mouse at 5 mg/kg, iv. It counts as ADME, organism-based. The arrangement: dose 5 mg/kg, route intravenous. The conditions noted are these: in vivo.
The test system of data set [10] is SF-295. In words: Antitumor activity against human SF295 cells infected in athymic mouse assessed as increase in mouse survival at 0.36 to 0.80 mg/kg relative to control. It counts as functional, organism-based.
Data set [11] in a line: Half life in BALB/c mouse at 5 mg/kg, iv. It counts as ADME, organism-based. Set-up: dose 5 mg/kg, route intravenous. As to conditions: in vivo.
Data set [12] can be described thus: CSF penetration index, ratio of AUC (0 to infinity) in CSF to plasma of Sprague-Dawley rat at 4 mg/kg, iv. Type of data set: ADME, organism-based. The arrangement: dose 4 mg/kg, route intravenous.

Counter-ions that a name gives are not always drawn. Active and inactive are the calls of the source. No cut-off for these calls is given here.

Regarding `C=C(C)CN1CCO[C@@H](C[C@H]2O[C@H]3C[C@H]4O[C@@H](CC[C@@H]5O[C@@H](CC[C@@]67C[C@H]8O[C@H]9[C@@H](O6)[C@H]6O[C@H](CC[C@@H]6O[C@H]9[C@H]8O7)CC(=O)C[C@@H]3[C@H]2OC)CC5=C)C[C@@H](C)C4=C)C1`, the IC50 was 1.53 nM in [1], 0.26 nM in data set [3], 0.25 nM in data set [5] and 0.5 nM in [7]. For the same compound, the “Ratio AUC” value in [2] came out at 1.8 mL/g. The AUC in data set [4] is 1362 ng·h/g. The Activity in [6] is more than 175%. Further, the fraction unbound in data set [8] is 0.024. Besides, the Tmax in data set [9] worked out at 4.8 min. Also, in data set [10], the outcome was Active. The compound further gave a half-life in data set [11] of 72 min.
For the compound `C=C(C)CN(CC)CC[C@H]1O[C@H]2C[C@H]3O[C@@H](CC[C@@H]4O[C@@H](CC[C@@]56C[C@H]7O[C@H]8[C@@H](O5)[C@H]5O[C@H](CC[C@@H]5O[C@H]8[C@H]7O6)CC(=O)C[C@@H]2[C@H]1OC)CC4=C)C[C@@H](C)C3=C`, the IC50 amounted to 2.89 nM in data set [1], 0.23 nM in data set [5] and 0.61 nM in data set [7].
With `C=C1C[C@@H]2CC[C@@]34C[C@H]5O[C@H]6[C@@H](O3)[C@H]3O[C@H](CC[C@@H]3O[C@H]6[C@H]5O4)CC(=O)C[C@@H]3[C@@H](OC)[C@@H](C[C@@H](COC)OC)O[C@H]3C[C@H]3O[C@@H](CC[C@@H]1O2)C[C@@H](C)C3=C`, the IC50 in [5] came out at 0.24 nM; in [7], 0.74 nM.
With `C=C1C[C@@H]2CC[C@@]34C[C@H]5O[C@H]6[C@@H](O3)[C@H]3O[C@H](CC[C@@H]3O[C@H]6[C@H]5O4)CC(=O)C[C@@H]3[C@@H](OC)[C@@H](CCN4CCC(C(F)(F)F)CC4)O[C@H]3C[C@H]3O[C@@H](CC[C@@H]1O2)C[C@@H](C)C3=C`, the IC50 stood at 0.75 nM in data set [1], 0.11 nM in data set [5] and 0.28 nM in [7].
Regarding `C#CCN(C)C[C@H](C[C@H]1O[C@H]2C[C@H]3O[C@@H](CC[C@@H]4O[C@@H](CC[C@@]56C[C@H]7O[C@H]8[C@@H](O5)[C@H]5O[C@H](CC[C@@H]5O[C@H]8[C@H]7O6)CC(=O)C[C@@H]2[C@H]1OC)CC4=C)C[C@@H](C)C3=C)OC`, the IC50 in [1] was 0.95 nM; in data set [3] it was 0.41 nM; in data set [5] it was 0.18 nM; in [7], 0.18 nM.
Turning to `C=C1C[C@@H]2CC[C@@]34C[C@H]5O[C@H]6[C@@H](O3)[C@H]3O[C@H](CC[C@@H]3O[C@H]6[C@H]5O4)CC(=O)C[C@@H]3[C@@H](OC)[C@@H](CCN4CCOCC4)O[C@H]3C[C@H]3O[C@@H](CC[C@@H]1O2)C[C@@H](C)C3=C`, the IC50 in data set [1] turned out to be 2.52 nM; in [5], 0.12 nM; in data set [7] it was 1.26 nM.
With `C=C1C[C@@H]2CC[C@@]34C[C@H]5O[C@H]6[C@@H](O3)[C@H]3O[C@H](CC[C@@H]3O[C@H]6[C@H]5O4)CC(=O)C[C@@H]3[C@@H](OC)[C@@H](C[C@H](O)CN)O[C@H]3C[C@H]3O[C@@H](CC[C@@H]1O2)C[C@@H](C)C3=C` [ERIBULIN MESYLATE], the “Ratio AUC” value in [2] came out at 0.55 mL/g. Besides, the IC50 came out at 27.9 nM in data set [3] and 5.87 nM in data set [7]. This compound also returned an AUC in data set [4] of 435 ng·h/g. Moreover, in [9], the Tmax is 30 min. This compound also showed a half-life in data set [11] of 2760 min.
`C=C(C)CN(CC)C[C@H](C[C@H]1O[C@H]2C[C@H]3O[C@@H](CC[C@@H]4O[C@@H](CC[C@@]56C[C@H]7O[C@H]8[C@@H](O5)[C@H]5O[C@H](CC[C@@H]5O[C@H]8[C@H]7O6)CC(=O)C[C@@H]2[C@H]1OC)CC4=C)C[C@@H](C)C3=C)OC`: the values for the IC50 in data set [1], in [5] and in data set [7] were 2.73 nM, 0.23 nM and 3.74 nM, respectively.
In the same order, the values of `C=C1C[C@@H]2CC[C@@]34C[C@H]5O[C@H]6[C@@H](O3)[C@H]3O[C@H](CC[C@@H]3O[C@H]6[C@H]5O4)CC(=O)C[C@@H]3[C@@H](OC)[C@@H](C[C@@H](CN4CCC(C(F)(F)F)CC4)OC)O[C@H]3C[C@H]3O[C@@H](CC[C@@H]1O2)C[C@@H](C)C3=C` are 0.83 nM, 0.14 nM and 0.33 nM.
Regarding `C=C1C[C@@H]2CC[C@@]34C[C@H]5O[C@H]6[C@@H](O3)[C@H]3O[C@H](CC[C@@H]3O[C@H]6[C@H]5O4)CC(=O)C[C@@H]3[C@@H](OC)[C@@H](C[C@@H](CN4CC(C)CC(C)C4)OC)O[C@H]3C[C@H]3O[C@@H](CC[C@@H]1O2)C[C@@H](C)C3=C` (some centres not stated), the IC50 in data set [1] turned out to be 2.41 nM; in [3], 0.1 nM; in data set [5], 0.13 nM; in [7] it was 2.55 nM. Besides, the “Ratio AUC” value in data set [2] is 1.7 mL/g. The compound also showed an AUC in data set [4] of 3108 ng·h/g. The fraction unbound in data set [8] stood at 0.034. In addition, the Tmax in data set [9] is 4.8 min. Besides, the half-life in [11] is 318 min.
Take `C=C1C[C@@H]2CC[C@@]34C[C@H]5O[C@H]6[C@@H](O3)[C@H]3O[C@H](CC[C@@H]3O[C@H]6[C@H]5O4)CC(=O)C[C@@H]3[C@@H](OC)[C@@H](CC(=O)CN4CCOCC4)O[C@H]3C[C@H]3O[C@@H](CC[C@@H]1O2)C[C@@H](C)C3=C`: the IC50 was 3.12 nM in [1], 0.25 nM in [5] and 0.88 nM in data set [7].
On to `C=C1C[C@@H]2CC[C@@]34C[C@H]5O[C@H]6[C@@H](O3)[C@H]3O[C@H](CC[C@@H]3O[C@H]6[C@H]5O4)CC(=O)C[C@@H]3[C@@H](OC)[C@@H](CCNCC(F)F)O[C@H]3C[C@H]3O[C@@H](CC[C@@H]1O2)C[C@@H](C)C3=C`, for which the IC50 in [1] was determined as 31.9 nM; in [5], 1.91 nM; in [7], 4.05 nM.
For `CC(=O)O[C@H]1C(=O)[C@@]2(C)[C@H]([C@H](OC(=O)c3ccccc3)[C@]3(O)C[C@H](OC(=O)[C@H](O)[C@@H](NC(=O)c4ccccc4)c4ccccc4)C(C)=C1C3(C)C)[C@]1(OC(C)=O)CO[C@@H]1C[C@@H]2O` [PACLITAXEL], the IC50 was more than 1000 nM in [1] and 24.6 nM in data set [3].
Turning to `C=C1C[C@@H]2CC[C@@]34C[C@H]5O[C@H]6[C@@H](O3)[C@H]3O[C@H](CC[C@@H]3O[C@H]6[C@H]5O4)CC(=O)C[C@@H]3[C@@H](OC)[C@@H](CCCN4CCOCC4)O[C@H]3C[C@H]3O[C@@H](CC[C@@H]1O2)C[C@@H](C)C3=C`, the IC50 in data set [1] is 1.3 nM; in data set [5], 0.083 nM; in data set [7], 1.44 nM. For the same compound, the “Ratio AUC” value in data set [2] was determined as 7.7 mL/g. Also, the AUC in [4] amounted to 10200 ng·h/g. Moreover, in [8], the fraction unbound turned out to be 0.101. For the same compound, the Tmax in data set [9] amounted to 15 min. Besides, the half-life in data set [11] is 276 min.
As for `C=C1C[C@@H]2CC[C@@]34C[C@H]5O[C@H]6[C@@H](O3)[C@H]3O[C@H](CC[C@@H]3O[C@H]6[C@H]5O4)CC(=O)C[C@@H]3[C@@H](OC)[C@@H](C[C@@H](CN4CCOCC4)OC)O[C@H]3C[C@H]3O[C@@H](CC[C@@H]1O2)C[C@@H](C)C3=C`, the Kp in [12] amounted to 2.2. Further, the IC50 in [1] is 1.91 nM; in data set [5], 0.16 nM; in [7] it was 1.97 nM. The “Ratio AUC” value in [2] is 1.4 mL/g. The AUC in [4] was 1351 ng·h/g. This compound gave a fraction unbound in [8] of 0.113. In addition, the Tmax in [9] was determined as 4.8 min. Also, in [11], the half-life is 54 min.
